Experimental data as given in patent US12486300B2, “Mithramycin oxime derivatives having increased selectivity and anti-cancer activity” (University of Kentucky Research Foundation, priority 2018, dated 2025).

system: TC32 Ewing sarcoma cells, expressing EWS-FLI1; assay: Growth inhibition assay, TC32 cells; type: cell-based; settings: ratio of GI50 PC3 to TC32
Experimental: Growth inhibition assay to assess cytotoxicity in ETS vs non-ETS expressing cells. Cells were seeded in clear 96-well plates (VWR, Radnor, PA). Seeding densities were optimized for each cell line to support 5 days of linear growth. Following a 24 hours attachment period, cells in duplicate wells were treated with half-log increments of respective compounds (0 nM and 0.3 nM-10 μM). Working stocks were prepared from an initial 10 mM drug stock diluted in either 100% ethanol or dimethyl sulfoxide (DMSO). All wells contained a final concentration of 0.1% (v/v) respective organic solvent. Immediately following treatment, cell viability was measured for vehicle control (Day 0) wells. Cell viability was measured in the remaining wells after 72 hours of incubation with compound or vehicle control (Day 3).
Percent viability, relative to the initial cell seeding concentration, was calculated by ((TreatmentDay3−Vehicle ControlDay0)/(Vehicle ControlDay3−Vehicle ControlDay0))×100. Percent cell viability was plotted as a function of compound concentration (Log [M]) and the data were fit using a 3-parameter non-linear model with fixed Hill slope constant and 4-parameter non-linear model with variable Hill slope constant. The model with the best curve fit was used to estimate the GI50 in GraphPad Prism 7.0 software (GraphPad Software, La Jolla, CA). The 3-parameter equation used was Y=Bottom+(Top−Bottom)/(1+10[…]((X−Log[IC50]))). The 4-parameter equation used was Y=Bottom+(Top−Bottom)/(1+10[…]((Log[IC50]−X)*Hillslope)). Top and Bottom are plateaus in the units of the Y-axis (response). IC50 is the response (Y-axis) halfway between Top and Bottom plateaus.
All compounds were tested at least once in multi-well replicates and each experiment included one a control compound (i.e., MTM) to ensure the stable response of the cell lines. The selectivity index was estimated by determining the ratio of GI50 estimates between ETS fusion negative and ETS fusion positive cell lines.

Row | Structure (SMILES) | PC:TC32 (cellular selectivity)
1 | COC(C(=NOCCOc1ccc(C(F)(F)F)cc1)C(O)C(C)O)C1Cc2cc3cc(OC4CC(OC5CC(O)C(O)C(C)O5)C(O)C(C)O4)c(C)c(O)c3c(O)c2C(=O)C1OC1CC(OC2CC(OC3CC(C)(O)C(O)C(C)O3)C(O)C(C)O2)C(O)C(C)O1 (stereo not shown) [MTM (16)] | 7.91
2 | C#CCON=C(C(O)C(C)O)C(OC)C1Cc2cc3cc(OC4CC(OC5CC(O)C(O)C(C)O5)C(O)C(C)O4)c(C)c(O)c3c(O)c2C(=O)C1OC1CC(OC2CC(OC3CC(C)(O)C(O)C(C)O3)C(O)C(C)O2)C(O)C(C)O1 (stereo not shown) [MTM (17E)] | 2.40
3 | C#CCON=C(C(O)C(C)O)C(OC)C1Cc2cc3cc(OC4CC(OC5CC(O)C(O)C(C)O5)C(O)C(C)O4)c(C)c(O)c3c(O)c2C(=O)C1OC1CC(OC2CC(OC3CC(C)(O)C(O)C(C)O3)C(O)C(C)O2)C(O)C(C)O1 (stereo not shown) [MTM (17Z)] | 1.89
4 | COC(C(=NOCC(=O)NCCc1c[nH]c2ccccc12)C(O)C(C)O)C1Cc2cc3cc(OC4CC(OC5CC(O)C(O)C(C)O5)C(O)C(C)O4)c(C)c(O)c3c(O)c2C(=O)C1OC1CC(OC2CC(OC3CC(C)(O)C(O)C(C)O3)C(O)C(C)O2)C(O)C(C)O1 (stereo not shown) [MTM (18)] | 6.44
5 | COC(C(=NOCCc1c[nH]c2ccccc12)C(O)C(C)O)C1Cc2cc3cc(OC4CC(OC5CC(O)C(O)C(C)O5)C(O)C(C)O4)c(C)c(O)c3c(O)c2C(=O)C1OC1CC(OC2CC(OC3CC(C)(O)C(O)C(C)O3)C(O)C(C)O2)C(O)C(C)O1 (stereo not shown) [MTM (19)] | 1.70
6 | COC(C(=NOCCc1c[nH]c2ccccc12)C(O)C(C)O)C1Cc2cc3cc(OC4CC(OC5CC(O)C(O)C(C)O5)C(O)C(C)O4)c(C)c(O)c3c(O)c2C(=O)C1OC1CC(OC2CC(OC3CC(C)(O)C(O)C(C)O3)C(O)C(C)O2)C(O)C(C)O1 (stereo not shown) [MTM (19E)] | 1.40
7 | COC(C(=NOCCCc1c[nH]c2ccccc12)C(O)C(C)O)C1Cc2cc3cc(OC4CC(OC5CC(O)C(O)C(C)O5)C(O)C(C)O4)c(C)c(O)c3c(O)c2C(=O)C1OC1CC(OC2CC(OC3CC(C)(O)C(O)C(C)O3)C(O)C(C)O2)C(O)C(C)O1 (stereo not shown) [MTM (21)] | 1.38
8 | COC(C(=NOCCCCc1c[nH]c2ccccc12)C(O)C(C)O)C1Cc2cc3cc(OC4CC(OC5CC(O)C(O)C(C)O5)C(O)C(C)O4)c(C)c(O)c3c(O)c2C(=O)C1OC1CC(OC2CC(OC3CC(C)(O)C(O)C(C)O3)C(O)C(C)O2)C(O)C(C)O1 (stereo not shown) [MTM (22)] | 1.54
9 | COC(=O)C(Cc1c[nH]c2ccccc12)NC(=O)C(Cc1ccccc1)NC(=O)CON=C(C(O)C(C)O)C(OC)C1Cc2cc3cc(OC4CC(OC5CC(O)C(O)C(C)O5)C(O)C(C)O4)c(C)c(O)c3c(O)c2C(=O)C1OC1CC(OC2CC(OC3CC(C)(O)C(O)C(C)O3)C(O)C(C)O2)C(O)C(C)O1 (stereo not shown) [MTM (23)] | 7.31
10 | COC(=O)C(Cc1c[nH]c2ccccc12)NC(=O)C(Cc1c[nH]c2ccccc12)NC(=O)CON=C(C(O)C(C)O)C(OC)C1Cc2cc3cc(OC4CC(OC5CC(O)C(O)C(C)O5)C(O)C(C)O4)c(C)c(O)c3c(O)c2C(=O)C1OC1CC(OC2CC(OC3CC(C)(O)C(O)C(C)O3)C(O)C(C)O2)C(O)C(C)O1 (stereo not shown) [MTM (24)] | 6.9
11 | COC(=O)C(Cc1ccccc1)NC(=O)C(Cc1c[nH]c2ccccc12)NC(=O)CON=C(C(O)C(C)O)C(OC)C1Cc2cc3cc(OC4CC(OC5CC(O)C(O)C(C)O5)C(O)C(C)O4)c(C)c(O)c3c(O)c2C(=O)C1OC1CC(OC2CC(OC3CC(C)(O)C(O)C(C)O3)C(O)C(C)O2)C(O)C(C)O1 (stereo not shown) [MTM (25)] | 5.98
12 | COC(=O)C(Cc1cn(C)c2ccccc12)NC(=O)CON=C(C(O)C(C)O)C(OC)C1Cc2cc3cc(OC4CC(OC5CC(O)C(O)C(C)O5)C(O)C(C)O4)c(C)c(O)c3c(O)c2C(=O)C1OC1CC(OC2CC(OC3CC(C)(O)C(O)C(C)O3)C(O)C(C)O2)C(O)C(C)O1 (stereo not shown) [MTM (26)] | 5.64
13 | COC(=O)C(Cc1ccccc1)NC(=O)CON=C(C(O)C(C)O)C(OC)C1Cc2cc3cc(OC4CC(OC5CC(O)C(O)C(C)O5)C(O)C(C)O4)c(C)c(O)c3c(O)c2C(=O)C1OC1CC(OC2CC(OC3CC(C)(O)C(O)C(C)O3)C(O)C(C)O2)C(O)C(C)O1 (stereo not shown) [MTM (27)] | 7.06
14 | COC(=O)C(Cc1ccccc1)NC(=O)C(Cc1ccccc1)NC(=O)CON=C(C(O)C(C)O)C(OC)C1Cc2cc3cc(OC4CC(OC5CC(O)C(O)C(C)O5)C(O)C(C)O4)c(C)c(O)c3c(O)c2C(=O)C1OC1CC(OC2CC(OC3CC(C)(O)C(O)C(C)O3)C(O)C(C)O2)C(O)C(C)O1 (stereo not shown) [MTM (28)] | 11.68
15 | COC(C(=NOCC(=O)NCCc1ccccc1)C(O)C(C)O)C1Cc2cc3cc(OC4CC(OC5CC(O)C(O)C(C)O5)C(O)C(C)O4)c(C)c(O)c3c(O)c2C(=O)C1OC1CC(OC2CC(OC3CC(C)(O)C(O)C(C)O3)C(O)C(C)O2)C(O)C(C)O1 (stereo not shown) [MTM (29)] | 1.58
16 | COC(=O)C(Cc1ccccc1)NC(=O)CON=C(C(O)C(C)O)C(OC)C1Cc2cc3cc(OC4CC(OC5CC(O)C(O)C(C)O5)C(O)C(C)O4)c(C)c(O)c3c(O)c2C(=O)C1OC1CC(OC2CC(OC3CC(C)(O)C(O)C(C)O3)C(O)C(C)O2)C(O)C(C)O1 (stereo not shown) [MTM (30)] | 2.08
17 | COC(C(=NOCC(=O)NCc1ccccc1)C(O)C(C)O)C1Cc2cc3cc(OC4CC(OC5CC(O)C(O)C(C)O5)C(O)C(C)O4)c(C)c(O)c3c(O)c2C(=O)C1OC1CC(OC2CC(OC3CC(C)(O)C(O)C(C)O3)C(O)C(C)O2)C(O)C(C)O1 (stereo not shown) [MTM (31)] | 1.83
18 | COC(C(=NOCC(=O)Nc1ccccc1)C(O)C(C)O)C1Cc2cc3cc(OC4CC(OC5CC(O)C(O)C(C)O5)C(O)C(C)O4)c(C)c(O)c3c(O)c2C(=O)C1OC1CC(OC2CC(OC3CC(C)(O)C(O)C(C)O3)C(O)C(C)O2)C(O)C(C)O1 (stereo not shown) [MTM (32)] | 1.11
19 | COC(C(=NNC(=O)CCCCCN1C(=O)C=CC1=O)C(O)C(C)O)C1Cc2cc3cc(OC4CC(OC5CC(O)C(O)C(C)O5)C(O)C(C)O4)c(C)c(O)c3c(O)c2C(=O)C1OC1CC(OC2CC(OC3CC(C)(O)C(O)C(C)O3)C(O)C(C)O2)C(O)C(C)O1 (stereo not shown) [MTM (33)] | 3.9
20 | COC(=O)C(Cc1c[nH]c2ccccc12)NC(=O)C(C)NC(=O)CON=C(C(O)C(C)O)C(OC)C1Cc2cc3cc(OC4CC(OC5CC(O)C(O)C(C)O5)C(O)C(C)O4)c(C)c(O)c3c(O)c2C(=O)C1OC1CC(OC2CC(OC3CC(C)(O)C(O)C(C)O3)C(O)C(C)O2)C(O)C(C)O1 (stereo not shown) [MTM (34)] | 4.28
21 | COC(C(=NOCC(=O)NC(Cc1c[nH]c2ccccc12)C(=O)O)C(O)C(C)O)C1Cc2cc3cc(OC4CC(OC5CC(O)C(O)C(C)O5)C(O)C(C)O4)c(C)c(O)c3c(O)c2C(=O)C1OC1CC(OC2CC(OC3CC(C)(O)C(O)C(C)O3)C(O)C(C)O2)C(O)C(C)O1 (stereo not shown) [MTM (39)] | 7.4
22 | COC(C(=NOCC(=O)NC(Cc1c[nH]c2ccccc12)C(=O)NCCc1c[nH]c2ccccc12)C(O)C(C)O)C1Cc2cc3cc(OC4CC(OC5CC(O)C(O)C(C)O5)C(O)C(C)O4)c(C)c(O)c3c(O)c2C(=O)C1OC1CC(OC2CC(OC3CC(C)(O)C(O)C(C)O3)C(O)C(C)O2)C(O)C(C)O1 (stereo not shown) [MTM (43)] | 2.6
23 | COC(C(=NOCC(=O)Nc1ccncc1)C(O)C(C)O)C1Cc2cc3cc(OC4CC(OC5CC(O)C(O)C(C)O5)C(O)C(C)O4)c(C)c(O)c3c(O)c2C(=O)C1OC1CC(OC2CC(OC3CC(C)(O)C(O)C(C)O3)C(O)C(C)O2)C(O)C(C)O1 (stereo not shown) [MTM (45)] | 2.4
24 | COC(C(=NOCC(=O)NC(Cc1c[nH]c2ccccc12)C(=O)Nc1ccccc1)C(O)C(C)O)C1Cc2cc3cc(OC4CC(OC5CC(O)C(O)C(C)O5)C(O)C(C)O4)c(C)c(O)c3c(O)c2C(=O)C1OC1CC(OC2CC(OC3CC(C)(O)C(O)C(C)O3)C(O)C(C)O2)C(O)C(C)O1 (stereo not shown) [MTM (47)] | 2.7
25 | COC(C(=NOCC(=O)NC(Cc1c[nH]c2ccccc12)C(=O)NCc1c[nH]c2ccccc12)C(O)C(C)O)C1Cc2cc3cc(OC4CC(OC5CC(O)C(O)C(C)O5)C(O)C(C)O4)c(C)c(O)c3c(O)c2C(=O)C1OC1CC(OC2CC(OC3CC(C)(O)C(O)C(C)O3)C(O)C(C)O2)C(O)C(C)O1 (stereo not shown) [MTM (48)] | 2.30
26 | COC(C(=NOCC(=O)Nc1cccnc1)C(O)C(C)O)C1Cc2cc3cc(OC4CC(OC5CC(O)C(O)C(C)O5)C(O)C(C)O4)c(C)c(O)c3c(O)c2C(=O)C1OC1CC(OC2CC(OC3CC(C)(O)C(O)C(C)O3)C(O)C(C)O2)C(O)C(C)O1 (stereo not shown) [MTM (49)] | 2.4
27 | COC(C(=NOCC(=O)Nc1cncnc1)C(O)C(C)O)C1Cc2cc3cc(OC4CC(OC5CC(O)C(O)C(C)O5)C(O)C(C)O4)c(C)c(O)c3c(O)c2C(=O)C1OC1CC(OC2CC(OC3CC(C)(O)C(O)C(C)O3)C(O)C(C)O2)C(O)C(C)O1 (stereo not shown) [MTM (50)] | 2.7
28 | COC(=O)C(Cc1ccccc1)NC(=O)C(Cc1c[nH]c2ccccc12)NC(=O)CON=C(C(O)C(C)O)C(OC)C1Cc2cc3cc(OC4CC(OC5CC(O)C(O)C(C)O5)C(O)C(C)O4)c(C)c(O)c3c(O)c2C(=O)C1OC1CC(OC2CC(OC3CC(C)(O)C(O)C(C)O3)C(O)C(C)O2)C(O)C(C)O1 (stereo not shown) [MTM (51)] | 2.2
